The values below come from patent US9890155B2, “Aza-oxo-indoles for the treatment and prophylaxis of respiratory syncytial virus infection” (Hoffmann-La Roche Inc., priority 2013, dated 2018).

The first assay concerns RSV infection.
Assay: not given
As to conditions: intramuscularly 15 mg/kg once a month for the RSV season, selected infants; cited from earlier work.
Take “palivizumab: a humanized monoclonal antibody against RSV fusion (F) protein approved for prophylaxis in high-risk infants”: the “reduction of hospitalization rate caused by RSV infection” value is 45-55%.

Another assay relates to RSV Long strain. Briefly: Viral Cytopathic Effect (CPE) Assay. As to conditions: human respiratory syncytial virus, 144 h, cell viability after 6 days (Cell Counting kit-8). Type of assay: cell-based. The protocol: EC50: the concentration of a compound where 50% of its maximal protection effect against viral induced CPE is observed
LongStrain: an A subtype RSV strain obtained from ATCC with catalog number VR-26
To measure anti-RSV activity of compounds, 96-well plates are seeded with 6×10^3 cells per well in Dulbecco's modified Eagle's medium (DMEM) containing 10% fetal bovine serum (FBS). Cells are infected the next day with sufficient RSV Long strain (ATCC) to produce an approximately 80-90% cytopathic effect after 6 days, in the presence of serial half-log diluted compound in a total volume of 200 μL per well. The viability of cells is assessed after 6 days using Cell Counting kit-8 (Dojindo Molecular Technologies). The absorbance at 450 nm and referenced at 630 nm is measured to determine 50% effective concentration (EC50).
In general terms: Cytopathic effects are the visible damage that an infection or toxin causes in cultured cells.
As usually defined, the EC50 is the concentration giving half of the maximal effect. The low end stands for a more potent agent, the high end for a less potent agent. Consider `CS(=O)(=O)c1cccc(-n2c(CN3C(=O)C4(CC4)c4ccncc43)nc3cc(Cl)ccc32)c1` [Example 4-4, 1′-({5-chloro-1-[3-(methylsulfonyl)phenyl]-1H-benzimidazol-2-yl}methyl)spiro[cyclopropane-1,3′-pyrrolo[2,3-c]pyridin]-2′(1′H)-one], for which the EC50 was 8 nM.
The same measure, in the same setting: under `N#Cc1cccc(-n2c(CN3C(=O)C4(CC4)c4ccncc43)nc3cc(Cl)ccc32)c1` [Example 4-7, 3-{5-Chloro-2-[(2′-oxospiro[cyclopropane-1,3′-pyrrolo[2,3-c]pyridin]-1′(2′H)-yl)methyl]-1H-benzimidazol-1-yl}benzonitrile] stands 7 nM.
Still for that read-out and setting: in the case of `Cc1cc(-n2c(CN3C(=O)C4(CC4)c4ccncc43)nc3cc(Cl)ccc32)cc(S(C)(=O)=O)c1` [Example 5-3, 1′-({5-Chloro-1-[3-methyl-5-(methylsulfonyl)phenyl]-1H-benzimidazol-2-yl}methyl)spiro[cyclopropane-1,3′-pyrrolo[2,3-c]pyridin]-2′(1′H)-one] it was 19 nM.
As for `O=C(O)c1cccc(-n2c(CN3C(=O)C4(CC4)c4ccncc43)nc3cc(Cl)ccc32)c1` [Example 6-2, 3-{5-Chloro-2-[(2′-oxospiro[cyclopropane-1,3′-pyrrolo[2,3-c]pyridin]-1′(2′H)-yl)methyl]-1H-benzimidazol-1-yl}benzoic acid], the EC50 was 512 nM.
In the case of `CCOC(=O)c1ccc(-n2c(CN3C(=O)C4(CC4)c4ccncc43)nc3cc(Cl)ccc32)cc1` [Example 4-2, Ethyl 4-{5-chloro-2-[(2′-oxospiro[cyclopropane-1,3′-pyrrolo[2,3-c]pyridin]-1′(2′H)-yl)methyl]-1H-benzimidazol-1-yl}benzoate], the EC50 amounted to 6 nM.
Same read-out and setting: in the case of `O=C(O)c1ccc(-n2c(CN3C(=O)C4(CC4)c4ccc(F)cc43)nc3cc(Cl)ccc32)cc1` [Example 6-3, 4-{5-Chloro-2-[(6′-fluoro-2′-oxospiro[cyclopropane-1,3′-indol]-1′(2′H)-yl)methyl]-1H-benzimidazol-1-yl}benzoic acid] it was 50 nM.
Same read-out and setting: in the case of `CS(=O)(=O)c1ccc(-n2c(CN3C(=O)C4(CC4)c4ccncc43)nc3cc(Cl)ccc32)cc1` [Example 4-5, 1′-({5-Chloro-1-[4-(methylsulfonyl)phenyl]-1H-benzimidazol-2-yl}methyl)spiro[cyclopropane-1,3′-pyrrolo[2,3-c]pyridin]-2′(1′H)-one] it was 5 nM; in that of `CS(=O)(=O)c1cccc(-n2c(CN3C(=O)C4(CC4)c4ccncc43)nc3cc(Cl)ccc32)n1` [Example 5-2, 1′-({5-Chloro-1-[6-(methylsulfonyl)pyridin-2-yl]-1H-benzimidazol-2-yl}methyl)spiro[cyclopropane-1,3′-pyrrolo[2,3-c]pyridin]-2′(1′H)-one], 5 nM; in that of `O=C(O)c1ccc(-n2c(CN3C(=O)C4(CC4)c4ccncc43)nc3cc(Cl)ccc32)cc1` [Example 6-1, 4-{5-Chloro-2-[(2′-oxospiro[cyclopropane-1,3′-pyrrolo[2,3-c]pyridin]-1′(2′H)-yl)methyl]-1H-benzimidazol-1-yl}benzoic acid], 6 nM.
The same measure, in the same setting: under `CCS(=O)(=O)c1ccnc(-n2c(CN3C(=O)C4(CC4)c4ccncc43)nc3cc(Cl)ccc32)c1` [Example 2-2, 1′-({5-Chloro-1-[4-(ethylsulfonyl)pyridin-2-yl]-1H-benzimidazol-2-yl}methyl)spiro[cyclopropane-1,3′-pyrrolo[2,3-c]pyridin]-2′(1′H)-one] stands 21 nM; under `COc1ccc(-n2c(CN3C(=O)C4(CC4)c4ccncc43)nc3cc(Cl)ccc32)cn1` [Example 4-9, 1′-{[5-Chloro-1-(6-methoxypyridin-3-yl)-1H-benzimidazol-2-yl]methyl}spiro[cyclopropane-1,3′-pyrrolo[2,3-c]pyridin]-2′(1′H)-one], 11 nM; under `CS(=O)(=O)c1ccc(-n2c(CN3C(=O)C4(CC4)c4ccncc43)nc3cc(Cl)ccc32)cn1` [Example 4-3, 1′-({5-Chloro-1-[6-(methylsulfonyl)pyridin-3-yl]-1H-benzimidazol-2-yl}methyl)spiro[cyclopropane-1,3′-pyrrolo[2,3-c]pyridin]-2′(1′H)-one], 4 nM.
Regarding `N#Cc1ccc(-n2c(CN3C(=O)C4(CC4)c4ccncc43)nc3cc(Cl)ccc32)cn1` [Example 1, 5-{5-Chloro-2-[(2′-oxospiro[cyclopropane-1,3′-pyrrolo[2,3-c]pyridin]-1′(2′H)-yl)methyl]-1H-benzimidazol-1-yl}pyridine-2-carbonitrile], it took 0.7 nM to reach a half-maximal effect (EC50).
As to `CCOC(=O)Cc1ccc(-n2c(CN3C(=O)C4(CC4)c4ccncc43)nc3cc(Cl)ccc32)cc1` [Example 3, Ethyl(4-{5-chloro-2-[(2′-oxospiro[cyclopropane-1,3′-pyrrolo[2,3-c]pyridin]-1′(2′H)-yl)methyl]-1H-benzimidazol-1-yl}phenyl)acetate], the EC50 was found to be 14 nM.
Same read-out and setting: under `NC(=O)c1ccc(-n2c(CN3C(=O)C4(CC4)c4ccncc43)nc3cc(Cl)ccc32)cc1` [Example 7, 4-{5-Chloro-2-[(2′-oxospiro[cyclopropane-1,3′-pyrrolo[2,3-c]pyridin]-1′(2′H)-yl)methyl]-1H-benzimidazol-1-yl}benzamide] stands 13 nM; under `COC(=O)c1cccc(-n2c(CN3C(=O)C4(CC4)c4ccncc43)nc3cc(Cl)ccc32)c1` [Example 4-6, Methyl 3-{5-chloro-2-[(2′-oxospiro[cyclopropane-1,3′-pyrrolo[2,3-c]pyridin]-1′(2′H)-yl)methyl]-1H-benzimidazol-1-yl}benzoate], 16 nM.
On the same count and under the same terms, in the case of `CS(=O)(=O)c1ccc(-c2c(CN3C(=O)C4(CC4)c4ccncc43)[nH]c3cc(Cl)ccc23)cc1` [Example 9-1, 1′-({6-Chloro-3-[4-(methylsulfonyl)phenyl]-1H-indol-2-yl}methyl)spiro[cyclopropane-1,3′-pyrrolo[2,3-c]pyridin]-2′(1′H)-one] it was 25 nM; in that of `O=C1N(Cc2nc3cc(Cl)ccc3n2-c2ccccc2)c2cnccc2C12CC2` [Example 4-1, 1′-[(5-Chloro-1-phenyl-1H-benzimidazol-2-yl)methyl]spiro[cyclopropane-1,3′-pyrrolo[2,3-c]pyridin]-2′(1′H)-one], 17 nM; in that of `CS(=O)(=O)c1cccc(-c2c(CN3C(=O)C4(CC4)c4ccncc43)[nH]c3cc(Cl)ccc23)c1` [Example 9-2, 1′-({6-Chloro-3-[3-(methylsulfonyl)phenyl]-1H-indol-2-yl}methyl)spiro[cyclopropane-1,3′-pyrrolo[2,3-c]pyridin]-2′(1′H)-one], 29 nM.
As to `O=C1N(Cc2nc3cc(Cl)ccc3n2-c2ccc(O)nc2)c2cnccc2C12CC2` [Example 8, 1′-{[5-Chloro-1-(6-hydroxypyridin-3-yl)-1H-benzimidazol-2-yl]methyl}spiro[cyclopropane-1,3′-pyrrolo[2,3-c]pyridin]-2′(1′H)-one], the EC50 came to 18 nM.
Same read-out and setting: in the case of `CS(=O)(=O)c1cncc(-n2c(CN3C(=O)C4(CC4)c4ccncc43)nc3cc(Cl)ccc32)c1` [Example 5-1, 1′-({5-Chloro-1-[5-(methylsulfonyl)pyridin-3-yl]-1H-benzimidazol-2-yl}methyl)spiro[cyclopropane-1,3′-pyrrolo[2,3-c]pyridin]-2′(1H)-one] it was 5 nM; in that of `CC(=O)c1cccc(-n2c(CN3C(=O)C4(CC4)c4ccncc43)nc3cc(Cl)ccc32)c1` [Example 4-8, 1′-{[1-(3-Acetylphenyl)-5-chloro-1H-benzimidazol-2-yl]methyl}spiro[cyclopropane-1,3′-pyrrolo[2,3-c]pyridin]-2′(1′H)-one], 19 nM; in that of `CS(=O)(=O)c1cc(-n2c(CN3C(=O)C4(CC4)c4ccncc43)nc3cc(Cl)ccc32)ccn1` [Example 2-1, 1′-({5-Chloro-1-[2-(methylsulfonyl)pyridin-4-yl]-1H-benzimidazol-2-yl}methyl)spiro[cyclopropane-1,3′-pyrrolo[2,3-c]pyridin]-2′(1′H)-one], 65 nM.
